Common to all, as to test: KRas binding assay, TR-FRET displacement of Cy5 labelled tracer
Details in all cases: 60-minute incubation at room temperature, 1% DMSO, pH 7.5

For one assay, the target named is T1, KRas G12C (Homo sapiens, UniProt P01116, G12C).
T1 construct: Biotinylated KRas (corresponding to amino acids 1-169, produced at Accelegan Inc.); biotin (biotinylated); purchased Accelegan Inc
The protocol:
(§1) This Example illustrates that exemplary compounds of the present invention bind to KRas and are capable of displacing a labeled tracer ligand occupying the KRas binding site. KRas^WT, KRas^G12A, KRas^G12C, KRas^G12D, KRas^G12R, KRas^G12S, KRas^G12V, KRas^G13D, or KRas^Q61H was used in the assay.
(§2) The ability of a compound to bind to KRas was measured using a TR-FRET displacement assay. Biotinylated KRas (corresponding to amino acids 1-169, produced at Accelegan Inc.) was incubated with custom made Cy5 labelled tracer, terbium streptavidin (Cisbio Inc.) and compound (1% DMSO final) in buffer (50 mM HEPES, pH 7.5, 5 mM MgCl2, 0.005% Tween-20 and 1 mM DTT). After a 60-minute incubation at room temperature, the reaction was measured using a BMG LABTECH CLARIO star Plus via TR-FRET. […] The POC values were fit to a 4-parameter IC50 equation and the IC50 value reported.

For another assay, the target named is T2, KRas G12S (Homo sapiens, UniProt P01116, G12S).
T2 construct: Biotinylated KRas (corresponding to amino acids 1-169, produced at Accelegan Inc.); biotin (biotinylated); purchased Accelegan Inc
T2 sequence (P01116 1-169 isoform P01116-2 G12S): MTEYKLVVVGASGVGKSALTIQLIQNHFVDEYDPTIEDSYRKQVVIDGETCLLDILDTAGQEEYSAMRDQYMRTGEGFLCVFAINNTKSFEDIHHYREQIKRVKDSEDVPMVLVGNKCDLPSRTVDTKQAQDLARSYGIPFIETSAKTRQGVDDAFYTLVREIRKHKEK
The protocol:
as §1, §2

A further assay has as its target T3, KRas WT (Homo sapiens, UniProt P01116).
T3 construct: Biotinylated KRas (corresponding to amino acids 1-169, produced at Accelegan Inc.); biotin (biotinylated); purchased Accelegan Inc
How it is done:
as §1, §2

T3 sequence (P01116 1-169 isoform P01116-2): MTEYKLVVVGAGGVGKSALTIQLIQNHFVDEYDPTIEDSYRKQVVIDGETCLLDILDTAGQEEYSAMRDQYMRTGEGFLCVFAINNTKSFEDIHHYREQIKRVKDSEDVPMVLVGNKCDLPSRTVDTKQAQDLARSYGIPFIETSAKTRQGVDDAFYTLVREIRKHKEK
T1 sequence (P01116 1-169 isoform P01116-2 G12C): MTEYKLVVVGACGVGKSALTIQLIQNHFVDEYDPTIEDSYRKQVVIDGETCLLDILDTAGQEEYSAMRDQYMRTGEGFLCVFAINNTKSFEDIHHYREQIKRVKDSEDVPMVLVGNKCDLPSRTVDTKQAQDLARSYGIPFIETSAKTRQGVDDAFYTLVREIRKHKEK

`N#Cc1ccc(OC(=O)[C@@H]2[C@@H]3CC[C@H]2CN(c2nc(OCC45CCCN4CCC5)nc4c(F)c(-c5cccc6cccc(F)c56)ncc24)C3)cc1` [Example 20, 4-cyanophenyl (1R,5S,8r)-3-(8-fluoro-7-(8-fluoronaphthalen-1-yl)-2-((tetrahydro-1H-pyrrolizin-7a(5H)-yl)methoxy)pyrido[4,3-d]pyrimidin-4-yl)-3-azabicyclo[3.2.1]octane-8-carboxylate]: the IC50 on KRas G12C came to 27300 nM; at KRas G12S it was 98800 nM; on KRas WT, 14700 nM.
Turning to `N#Cc1ccccc1OC(=O)[C@@H]1[C@@H]2CC[C@H]1CN(c1nc(OCC34CCCN3CCC4)nc3c(F)c(-c4cccc5cccc(F)c45)ncc13)C2` [Example 21, 2-cyanophenyl (1R,5S,8r)-3-(8-fluoro-7-(8-fluoronaphthalen-1-yl)-2-((tetrahydro-1H-pyrrolizin-7a(5H)-yl)methoxy)pyrido[4,3-d]pyrimidin-4-yl)-3-azabicyclo[3.2.1]octane-8-carboxylate], the IC50 at KRas G12C was 15900 nM; at KRas G12S, over 100000 nM; at KRas WT, 52200 nM.
Consider `N#Cc1cccc(OC(=O)[C@@H]2[C@@H]3CC[C@H]2CN(c2nc(OCC45CCCN4CCC5)nc4c(F)c(-c5cccc6cccc(F)c56)ncc24)C3)c1` [Example 22, 3-cyanophenyl (1R,5S,8r)-3-(8-fluoro-7-(8-fluoronaphthalen-1-yl)-2-((tetrahydro-1H-pyrrolizin-7a(5H)-yl)methoxy)pyrido[4,3-d]pyrimidin-4-yl)-3-azabicyclo[3.2.1]octane-8-carboxylate], for which the figures for the IC50 at KRas G12C, on KRas G12S and at KRas WT were 95200 nM, over 100000 nM and 14100 nM, respectively.
Taken in the same sequence, the figures for `O=C(Oc1ccc(F)c(F)c1)[C@@H]1[C@@H]2CC[C@H]1CN(c1nc(OCC34CCCN3CCC4)nc3c(F)c(-c4cccc5cccc(F)c45)ncc13)C2` [Example 23, 3,4-difluorophenyl (1R,5S,8r)-3-(8-fluoro-7-(8-fluoronaphthalen-1-yl)-2-((tetrahydro-1H-pyrrolizin-7a(5H)-yl)methoxy)pyrido[4,3-d]pyrimidin-4-yl)-3-azabicyclo[3.2.1]octane-8-carboxylate] were 34800 nM, 61600 nM and 11800 nM.
Take `O=C(Oc1c(F)cccc1F)[C@@H]1[C@@H]2CC[C@H]1CN(c1nc(OCC34CCCN3CCC4)nc3c(F)c(-c4cccc5cccc(F)c45)ncc13)C2` [Example 24, 2,6-difluorophenyl (1R,5S,8r)-3-(8-fluoro-7-(8-fluoronaphthalen-1-yl)-2-((tetrahydro-1H-pyrrolizin-7a(5H)-yl)methoxy)pyrido[4,3-d]pyrimidin-4-yl)-3-azabicyclo[3.2.1]octane-8-carboxylate]: the IC50 at KRas G12C was 30500 nM; on KRas G12S, over 100000 nM; on KRas WT it was 17700 nM.
Taken in the same sequence, the figures for `O=C(Oc1ccccc1F)[C@@H]1[C@@H]2CC[C@H]1CN(c1nc(OCC34CCCN3CCC4)nc3c(F)c(-c4cccc5cccc(F)c45)ncc13)C2` [Example 25, 2-fluorophenyl (1R,5S,8s)-3-(8-fluoro-7-(8-fluoronaphthalen-1-yl)-2-((tetrahydro-1H-pyrrolizin-7a(5H)-yl)methoxy)pyrido[4,3-d]pyrimidin-4-yl)-3-azabicyclo[3.2.1]octane-8-carboxylate] were 66900 nM, over 100000 nM and 10900 nM.
Taken in the same sequence, the figures for `O=C(Oc1ccccc1)[C@@H]1[C@@H]2CC[C@H]1CN(c1nc(OCC34CCCN3CCC4)nc3c(F)c(-c4cccc5cccc(F)c45)ncc13)C2` [Example 26, phenyl (1R,5S,8r)-3-(8-fluoro-7-(8-fluoronaphthalen-1-yl)-2-((tetrahydro-1H-pyrrolizin-7a(5H)-yl)methoxy)pyrido[4,3-d]pyrimidin-4-yl)-3-azabicyclo[3.2.1]octane-8-carboxylate] were 92800 nM, 75600 nM and 10600 nM.
Taken in the same sequence, the figures for `N#Cc1ccccc1OC(=O)C1CCN(c2nc(OCC34CCCN3CCC4)nc3c(F)c(-c4cccc5cccc(F)c45)ncc23)CC1` [Example 27, 2-cyanophenyl 1-(8-fluoro-7-(8-fluoronaphthalen-1-yl)-2-((tetrahydro-1H-pyrrolizin-7a(5H)-yl)methoxy)pyrido[4,3-d]pyrimidin-4-yl)piperidine-4-carboxylate] were 452 nM, over 100000 nM and 89200 nM.
For the molecule `N#Cc1cccc(OC(=O)C2CCN(c3nc(OCC45CCCN4CCC5)nc4c(F)c(-c5cccc6cccc(F)c56)ncc34)CC2)c1` [Example 28, 3-cyanophenyl 1-(8-fluoro-7-(8-fluoronaphthalen-1-yl)-2-((tetrahydro-1H-pyrrolizin-7a(5H)-yl)methoxy)pyrido[4,3-d]pyrimidin-4-yl)piperidine-4-carboxylate], the IC50 at KRas G12C was 724 nM; on KRas G12S, 74700 nM; on KRas WT, over 100000 nM.
As for `N#Cc1ccc(OC(=O)C2CCN(c3nc(OCC45CCCN4CCC5)nc4c(F)c(-c5cccc6cccc(F)c56)ncc34)CC2)cc1` [Example 29, 4-cyanophenyl 1-(8-fluoro-7-(8-fluoronaphthalen-1-yl)-2-((tetrahydro-1H-pyrrolizin-7a(5H)-yl)methoxy)pyrido[4,3-d]pyrimidin-4-yl)piperidine-4-carboxylate], the results for the IC50 at KRas G12C, on KRas G12S and at KRas WT were 201 nM, over 100000 nM and 90500 nM, respectively.
With `O=C(Oc1c(F)cccc1F)C1CCN(c2nc(OCC34CCCN3CCC4)nc3c(F)c(-c4cccc5cccc(F)c45)ncc23)CC1` [Example 30, 2,6-difluorophenyl 1-(8-fluoro-7-(8-fluoronaphthalen-1-yl)-2-((tetrahydro-1H-pyrrolizin-7a(5H)-yl)methoxy)pyrido[4,3-d]pyrimidin-4-yl)piperidine-4-carboxylate], the IC50 was 194 nM on KRas G12C, 32800 nM on KRas G12S and over 100000 nM on KRas WT.
Consider `O=C(OCC(F)(F)F)C1CCN(c2nc(OCC34CCCN3CCC4)nc3c(F)c(-c4cccc5cccc(F)c45)ncc23)CC1` [Example 31, 2,2,2-trifluoroethyl 1-(8-fluoro-7-(8-fluoronaphthalen-1-yl)-2-((tetrahydro-1H-pyrrolizin-7a(5H)-yl)methoxy)pyrido[4,3-d]pyrimidin-4-yl)piperidine-4-carboxylate], for which the 50% inhibitory concentration (IC50) at KRas G12C is over 100000 nM; on KRas G12S it was over 100000 nM; at KRas WT, 39400 nM.
For the molecule `O=C(Oc1cccnc1)C1CCN(c2nc(OCC34CCCN3CCC4)nc3c(F)c(-c4cccc5cccc(F)c45)ncc23)CC1` [Example 32, pyridin-3-yl 1-(8-fluoro-7-(8-fluoronaphthalen-1-yl)-2-((tetrahydro-1H-pyrrolizin-7a(5H)-yl)methoxy)pyrido[4,3-d]pyrimidin-4-yl)piperidine-4-carboxylate], the values for the half-maximal inhibitory concentration (IC50) on KRas G12C, at KRas G12S and at KRas WT were 128 nM, 43300 nM and over 100000 nM, respectively.
For `O=C(Oc1cc(F)cc(F)c1)C1CCN(c2nc(OCC34CCCN3CCC4)nc3c(F)c(-c4cccc5cccc(F)c45)ncc23)CC1` [Example 33, 3,5-difluorophenyl 1-(8-fluoro-7-(8-fluoronaphthalen-1-yl)-2-((tetrahydro-1H-pyrrolizin-7a(5H)-yl)methoxy)pyrido[4,3-d]pyrimidin-4-yl)piperidine-4-carboxylate] the same measures were 10700 nM, over 100000 nM and over 100000 nM.

Source of the values: patent US20260356856A1, “KRAS G12S AND G12C INHIBITORS” (MIRATI THERAPEUTICS, INC., priority 2023, published 2026).
